For 27 molecules, pest or weed control results are on record in patent US20180186742A1, “PICOLINAMIDES AS FUNGICIDES” (Dow AgroSciences LLC, priority 2017, published 2018).

Like-named read-outs stand apart in the source and are kept apart here.

In one experiment the test system is Puccinia triticina. Description: Wheat brown rust (PUCCRT), disease control on wheat seedlings. The experiment is classed as in vivo. Particulars: for pest or weed control at 121.5 g/ha: low volume application at 121.5 g/H; for pest or weed control at 100 ppm: high volume application at 100 ppm. The procedure, abridged: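 Compounds in acetone, diluted with nine volumes of water containing 110 ppm Triton X-100, sprayed to run-off on first-leaf Yuma wheat seedlings; track-spray tests used EC formulations with 0.1% Trycol 5941. Puccinia triticina spores applied before or after treatment. Overnight dark dew room at 22° C, 100% humidity, then greenhouse at 24° C.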

A further experiment concerns Zymoseptoria tritici. Description: Leaf blotch of wheat (SEPTTR), disease control on wheat seedlings. The experiment is classed as in vivo. Particulars: for pest or weed control at 121.5 g/ha: low volume application at 121.5 g/H; for pest or weed control at 100 ppm: high volume application at 100 ppm. The procedure, abridged: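 Z. tritici spores were inoculated onto wheat seedlings (Yuma, first leaf emerged) either before or after treatment. Treatment was an automated spray to run-off of acetone/Triton X-100 water solutions, or a track spray of EC formulations with 0.1% Trycol 5941. Plants were held in dew chambers at 20 °C and then a greenhouse at 20 °C. First-leaf severity (0–100%) was converted to percent control against untreated plants.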

Where [1] appears, read: 24 h, 1 Day Protectant, read-out: PUCCRT disease control, 1DP, LV activity.
Setting [2] is: 72 h, 3 Day Curative, read-out: PUCCRT disease control, 3DC, LV activity.
The mark [3] stands for this setting: 24 h, 1 Day Protectant, read-out: SEPTTR disease control, 1DP, LV activity.
[4] abbreviates: 24 h, 1 Day Protectant, read-out: PUCCRT disease control, 1DP, HV activity.
Setting [5] is: 72 h, 3 Day Curative, read-out: PUCCRT disease control, 3DC, HV activity.
Where [6] appears, read: 24 h, 1 Day Protectant, read-out: SEPTTR disease control, 1DP, HV activity.
Where [7] appears, read: 72 h, 3 Day Curative, read-out: SEPTTR disease control, 3DC, HV activity.
Where [8] appears, read: 72 h, 3 Day Curative, read-out: SEPTTR disease control, 3DC, LV activity.

For `COc1ccc([C@H](C(C)C)[C@H](C)OC(=O)[C@H](C)NC(=O)c2nccc(OC)c2OCOC(C)=O)c(F)c1` [Compound 257], the pest or weed control at 121.5 g/ha with Puccinia triticina (setting [1]), in the experiment with Puccinia triticina (setting [2]) and in the experiment on Zymoseptoria tritici (setting [3]) was greater than 80% in each case.

For `COc1ccnc(C(=O)N[C@@H](C)C(=O)O[C@@H](C)[C@@H](c2ccc(C)cc2F)C(C)C)c1O` [Compound 332], the pest or weed control at 100 ppm in the experiment on Puccinia triticina (setting [4]), in the experiment with Puccinia triticina (setting [5]), with Zymoseptoria tritici (setting [6]) and with Zymoseptoria tritici (setting [7]) was less than 80% in each case.

Take `CCC(CC)[C@@H](c1ccc(F)cc1OC)[C@H](C)OC(=O)[C@H](C)NC(=O)c1nccc(OC)c1O` [Compound 145]: the pest or weed control at 100 ppm with Puccinia triticina (setting [4]) is greater than 80%; with Puccinia triticina (setting [5]), greater than 80%; in the experiment on Zymoseptoria tritici (setting [6]), less than 80%; in the experiment on Zymoseptoria tritici (setting [7]), greater than 80%.

In the case of `COc1ccnc(C(=S)N[C@@H](C)C(=O)OC(C)[C@H](c2ccccc2)C2CCCC2)c1O` (some centres unmarked) [Compound 114], the pest or weed control at 100 ppm is greater than 80% in the experiment with Puccinia triticina (setting [4]), less than 80% in the experiment on Puccinia triticina (setting [5]), greater than 80% in the experiment on Zymoseptoria tritici (setting [6]) and less than 80% in the experiment with Zymoseptoria tritici (setting [7]).

Consider `COc1ccc([C@H](C(C)C)[C@H](C)OC(=O)[C@H](C)NC(=O)c2nccc(OC)c2OC(C)=O)c(F)c1` [Compound 251], for which the values for the pest or weed control at 121.5 g/ha in the experiment on Puccinia triticina (setting [1]), with Puccinia triticina (setting [2]) and in the experiment with Zymoseptoria tritici (setting [3]) were greater than 80%, greater than 80% and less than 80%, respectively.

For `CCC(C)[C@H](c1ccc(F)cc1C)[C@H](C)OC(=O)[C@H](C)NC(=O)c1nccc(OC)c1O` (some centres unmarked) [Compound 120], the pest or weed control at 100 ppm was greater than 80% in the experiment on Puccinia triticina (setting [4]), less than 0% in the experiment with Puccinia triticina (setting [5]), less than 0% in the experiment with Zymoseptoria tritici (setting [6]) and less than 80% in the experiment on Zymoseptoria tritici (setting [7]).

In the case of `CCC(CC)[C@@H](c1ccccc1)C(C)OC(=O)[C@H](C)NC(=O)c1nccc(OC)c1OCOC(C)=O` (some centres unmarked) [Compound 174], the pest or weed control at 121.5 g/ha with Puccinia triticina (setting [1]), in the experiment on Puccinia triticina (setting [2]), in the experiment with Zymoseptoria tritici (setting [3]) and with Zymoseptoria tritici (setting [8]) was greater than 80% each time.

On to `COc1ccnc(C(=O)N[C@@H](C)C(=O)O[C@H](C)[C@H](c2ccc(F)cc2C)C2CCCCC2)c1O` [Compound 129], for which the pest or weed control at 100 ppm in the experiment on Puccinia triticina (setting [4]) is greater than 80%; with Puccinia triticina (setting [5]) it was less than 0%; with Zymoseptoria tritici (setting [6]) it was greater than 80%; in the experiment on Zymoseptoria tritici (setting [7]) it was less than 80%.

In the case of `COc1ccnc(C(=O)N[C@@H](C)C(=O)O[C@@H](C)[C@H](c2ccc(F)cc2F)C(C)C)c1O` [Compound 328], the pest or weed control at 100 ppm in the experiment on Puccinia triticina (setting [4]), in the experiment with Puccinia triticina (setting [5]), in the experiment on Zymoseptoria tritici (setting [6]) and with Zymoseptoria tritici (setting [7]) was greater than 80% in each case.

For `CCC(C)[C@H](c1ccc(C)cc1C)[C@H](C)OC(=O)[C@H](C)NC(=O)c1nccc(OC)c1O` (some centres unmarked) [Compound 134], the pest or weed control at 100 ppm in the experiment on Puccinia triticina (setting [4]), in the experiment on Puccinia triticina (setting [5]), in the experiment on Zymoseptoria tritici (setting [6]) and with Zymoseptoria tritici (setting [7]) was less than 80% throughout.

`COc1ccnc(C(=S)N[C@@H](C)C(=O)O[C@@H](C)[C@H](c2ccc(F)cc2C)C(C)C)c1O` [Compound 136]: the pest or weed control at 100 ppm in the experiment on Puccinia triticina (setting [4]), with Puccinia triticina (setting [5]), with Zymoseptoria tritici (setting [6]) and in the experiment with Zymoseptoria tritici (setting [7]) was greater than 80% each time.

Regarding `CCC(CC)[C@@H](c1ccccc1C)[C@H](C)OC(=O)[C@H](C)NC(=O)c1nccc(OC)c1OC(C)=O` [Compound 385], the pest or weed control at 121.5 g/ha in the experiment with Puccinia triticina (24 h, 1 Day Protectant, wheat brown rust, read-out: PUCCRT 1DP disease control, LV activity) was greater than 80%; in the experiment on Puccinia triticina (72 h, 3 Day Curative, wheat brown rust, read-out: PUCCRT 3DC disease control, LV activity), greater than 80%; in the experiment with Zymoseptoria tritici (24 h, 1 Day Protectant, wheat leaf blotch, read-out: SEPTTR 1DP disease control, LV activity), greater than 80%; in the experiment on Zymoseptoria tritici (72 h, 3 Day Curative, wheat leaf blotch, read-out: SEPTTR 3DC disease control, LV activity), greater than 80%.

Regarding `COc1ccnc(C(=O)N[C@@H](C)C(=O)O[C@@H](C)[C@H](c2ccc(F)cc2C)C2CCCC2)c1O` [Compound 122], the pest or weed control at 100 ppm with Puccinia triticina (setting [4]) is greater than 80%; with Puccinia triticina (setting [5]) it was greater than 80%; with Zymoseptoria tritici (setting [6]), greater than 80%; with Zymoseptoria tritici (setting [7]) it was less than 80%.

`COc1ccnc(C(=O)N[C@@H](C)C(=O)O[C@@H](C)[C@@H](c2ccc(Cl)cc2Cl)C(C)C)c1O` [Compound 333]: the pest or weed control at 100 ppm in the experiment on Puccinia triticina (setting [4]) was greater than 80%; in the experiment on Puccinia triticina (setting [5]) it was less than 80%; in the experiment with Zymoseptoria tritici (setting [6]) it was less than 80%; in the experiment on Zymoseptoria tritici (setting [7]), less than 80%.

Regarding `COc1ccnc(C(=O)N[C@@H](CC(C)C)C(=O)O[C@@H](C)[C@H](c2ccc(F)cc2C)C(C)C)c1O` [Compound 320], the pest or weed control at 100 ppm in the experiment on Puccinia triticina (setting [4]), in the experiment on Puccinia triticina (setting [5]), in the experiment with Zymoseptoria tritici (setting [6]) and with Zymoseptoria tritici (setting [7]) was less than 80% throughout.

`COc1ccnc(C(=O)N[C@@H](C)C(=O)O[C@@H](C)[C@@H](c2ccccc2)C2CCCC2)c1OC(C)=O` [Compound 161]: the pest or weed control at 121.5 g/ha was greater than 80% in the experiment on Puccinia triticina (setting [1]), less than 80% in the experiment on Puccinia triticina (setting [2]), less than 80% with Zymoseptoria tritici (setting [3]) and greater than 80% in the experiment with Zymoseptoria tritici (setting [8]).

Consider `CCC(C)[C@@H](c1ccc(F)cc1C)[C@H](C)OC(=O)[C@H](C)NC(=O)c1nccc(OC)c1O` (some centres unmarked) [Compound 126], for which the pest or weed control at 100 ppm was greater than 80% with Puccinia triticina (setting [4]), less than 80% in the experiment on Puccinia triticina (setting [5]), greater than 80% in the experiment with Zymoseptoria tritici (setting [6]) and greater than 80% in the experiment on Zymoseptoria tritici (setting [7]).

Take `COc1cc(F)ccc1[C@H](C1CCC1)[C@H](C)OC(=O)[C@H](C)NC(=O)c1nccc(OC)c1O` [Compound 147]: the pest or weed control at 100 ppm in the experiment on Puccinia triticina (setting [4]) is greater than 80%; with Puccinia triticina (setting [5]), greater than 80%; in the experiment with Zymoseptoria tritici (setting [6]), less than 0%; with Zymoseptoria tritici (setting [7]), less than 80%.

Consider `COCCC(=O)Oc1c(OC)ccnc1C(=O)N[C@@H](C)C(=O)O[C@@H](C)[C@H](c1ccc(C)cc1)C(C)C` [Compound 245], for which the pest or weed control at 121.5 g/ha in the experiment with Puccinia triticina (setting [1]) is greater than 80%; with Puccinia triticina (setting [2]) it was greater than 80%; with Zymoseptoria tritici (setting [3]), less than 80%.

As to `COc1ccnc(C(=O)N[C@@H](C)C(=O)O[C@@H](C)[C@H](c2ccc(C)cc2)C(C)C)c1OC(C)=O` [Compound 168], the pest or weed control at 121.5 g/ha in the experiment with Puccinia triticina (setting [1]) was greater than 80%; in the experiment on Puccinia triticina (setting [2]) it was greater than 80%; with Zymoseptoria tritici (setting [3]), less than 80%; in the experiment on Zymoseptoria tritici (setting [8]) it was less than 80%.

Turning to `COc1ccnc(C(=O)N[C@@H](C)C(=O)O[C@@H](C)[C@H](c2ccc(Cl)cc2Cl)C(C)C)c1O` [Compound 330], the pest or weed control at 100 ppm in the experiment on Puccinia triticina (setting [4]) is greater than 80%; with Puccinia triticina (setting [5]), greater than 80%; with Zymoseptoria tritici (setting [6]), less than 80%; with Zymoseptoria tritici (setting [7]), less than 80%.

Regarding `COc1ccc([C@H](C(C)C)[C@H](C)OC(=O)[C@H](C)NC(=O)c2nccc(OC)c2OC(C)=O)c(OC)c1` [Compound 262], the pest or weed control at 121.5 g/ha in the experiment with Puccinia triticina (setting [1]) is greater than 80%; with Puccinia triticina (setting [2]), less than 80%; with Zymoseptoria tritici (setting [3]), less than 80%; with Zymoseptoria tritici (setting [8]), less than 80%.

Regarding `COCCC(=O)Oc1c(OC)ccnc1C(=O)N[C@@H](C)C(=O)O[C@@H](C)[C@H](c1ccc(F)c(C)c1)C(C)C` [Compound 246], the pest or weed control at 121.5 g/ha with Puccinia triticina (setting [1]), in the experiment with Puccinia triticina (setting [2]) and with Zymoseptoria tritici (setting [3]) was greater than 80% each time.

`COc1ccnc(C(=O)N[C@@H](C)C(=O)O[C@@H](C)[C@@H](c2ccc(F)cc2F)C(C)C)c1O` [Compound 331]: the pest or weed control at 100 ppm in the experiment on Puccinia triticina (setting [4]), with Puccinia triticina (setting [5]), in the experiment with Zymoseptoria tritici (setting [6]) and in the experiment with Zymoseptoria tritici (setting [7]) was less than 80% throughout.

`COc1ccc([C@H](C(C)C)[C@H](C)OC(=O)[C@H](C)NC(=O)c2nccc(OC)c2O)cc1` [Compound 338]: the pest or weed control at 100 ppm with Puccinia triticina (setting [4]) is greater than 80%; with Puccinia triticina (setting [5]), greater than 80%; with Zymoseptoria tritici (setting [6]), less than 80%; with Zymoseptoria tritici (setting [7]) it was less than 80%.

With `CCC(CC)[C@@H](c1ccc(F)cc1C)[C@H](C)OC(=O)[C@H](C)NC(=O)c1nccc(OC)c1O` [Compound 125], the pest or weed control at 100 ppm in the experiment on Puccinia triticina (setting [4]) is greater than 80%; with Puccinia triticina (setting [5]), less than 80%; with Zymoseptoria tritici (setting [6]), greater than 80%; in the experiment with Zymoseptoria tritici (setting [7]), greater than 80%.

As for `COc1ccnc(C(=O)N[C@@H](C)C(=O)O[C@@H](C)[C@H](c2ccc(OC(F)(F)F)cc2)C(C)C)c1O` [Compound 335], the pest or weed control at 100 ppm with Puccinia triticina (setting [4]) is greater than 80%; in the experiment on Puccinia triticina (setting [5]) it was greater than 80%; in the experiment on Zymoseptoria tritici (setting [6]), greater than 80%; in the experiment with Zymoseptoria tritici (setting [7]), less than 80%.
